Laboratory results published in patent US20240254138A1, “TRICYCLIC PYRIMIDINES AS CYCLIN-DEPENDENT KINASE 7 (CDK7) INHIBITORS” (JANSSEN PHARMACEUTICA NV, priority 2021, published 2024).
Like-named read-outs stand apart in the source and are kept apart here.

Columns and labels:
[1] = test system: RNA Polymerase II Serine 5 phosphorylation (Rpb1 CTD, downstream substrate of CDK7) in A549 cells; test: Imaging-based cellular RNA PolII Ser5 phosphorylation assay in A549 cells; format: cell-based, human; conditions: wild-type CDK7, RNA PolII Ser5 phosphorylation, averaged over all measurements; for IC50: Homo sapiens, A549, A549 cells, read-out: CDK7_A549 Wild-type CDK7 (pIC50) (converted); for CDK7_A549 Wild-type CDK7 (pIC50): A549 cells
How it was run: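 IC50 derived by fitting % control (DMSO high, 10 μM reference low) against concentration, with Hill slope. Readout: high-content imaging of phospho-Ser5 Rpb1 CTD antibody staining in fixed, permeabilized A549 cells exposed to compound 3 h after 20 h culture in 1% FBS DMEM.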

[2] = test system: RNA Polymerase II Serine 5 phosphorylation in A549 cells overexpressing CDK7-mutant (C312S); test: Imaging-based cellular RNA PolII Ser5 phosphorylation assay in A549 cells overexpressing CDK7-mutant (C312S); format: cell-based, human; conditions: RNA PolII Ser5 phosphorylation, averaged over all measurements; for IC50: Homo sapiens, A549, A549 cells overexpressing CDK7-mutant (C312S), read-out: CDK7_A549 mutant hCDK7(pIC50) (converted); for CDK7_A549 mutant hCDK7(pIC50): A549 cells overexpressing CDK7-mutant (C312S)
How it was run: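 Readout was automated imaging of anti-phospho-Ser5 Rpb1 CTD immunofluorescence, with IC50 fitted to % control versus concentration. Cells were A549 stably overexpressing non-covalently targetable CDK7 C312S alongside wild-type, exposed to compound 3 h at 37 °C. DMSO and 10 μM reference compound served as controls.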

[3] = target: CDK7/cyclinH/MAT1 trimeric complex (Homo sapiens, UniProt P50613); test: In vitro CDK7 assay, potency of irreversible covalent inhibitors (kinact/KI), coupled PK/LDH ADP readout at 340 nm; conditions: for Ki: CDK7 (20 nM enz.) (KI, μM); for kinact: read-out: CDK7 (20 nM enz.) (kinact, s^−1), 20 nM enzyme
[4] = read-out: CDK7 (20 nM enz.) (kinact/KI, M^−1*s^−1), 20 nM enzyme
[5] = read-out: CDK7 (20 nM enz.) (kobs/[I], M^−1*s^−1), 20 nM enzyme

Chain of CDK7/cyclinH/MAT1 trimeric complex (P50613 whole entry): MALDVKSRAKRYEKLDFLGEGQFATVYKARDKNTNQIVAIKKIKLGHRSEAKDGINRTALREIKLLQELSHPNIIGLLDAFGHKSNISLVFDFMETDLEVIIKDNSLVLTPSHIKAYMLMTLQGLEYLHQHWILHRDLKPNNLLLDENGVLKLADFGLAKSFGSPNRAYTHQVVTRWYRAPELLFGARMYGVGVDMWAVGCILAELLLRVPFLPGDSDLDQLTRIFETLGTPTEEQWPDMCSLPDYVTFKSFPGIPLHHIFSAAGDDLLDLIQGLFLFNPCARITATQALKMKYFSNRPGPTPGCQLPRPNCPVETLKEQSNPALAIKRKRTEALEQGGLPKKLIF
Chain of CDK7/cyclinH/MAT1 trimeric complex (P51946 whole entry partner): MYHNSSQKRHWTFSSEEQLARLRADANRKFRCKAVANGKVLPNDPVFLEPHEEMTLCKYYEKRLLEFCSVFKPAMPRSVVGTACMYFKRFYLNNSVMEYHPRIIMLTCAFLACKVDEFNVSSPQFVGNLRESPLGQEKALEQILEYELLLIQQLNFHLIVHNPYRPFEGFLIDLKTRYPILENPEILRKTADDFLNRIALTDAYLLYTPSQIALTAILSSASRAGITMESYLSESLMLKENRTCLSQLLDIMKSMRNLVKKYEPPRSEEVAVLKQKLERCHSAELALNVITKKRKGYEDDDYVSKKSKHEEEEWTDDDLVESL
Chain of CDK7/cyclinH/MAT1 trimeric complex (P51948 whole entry partner): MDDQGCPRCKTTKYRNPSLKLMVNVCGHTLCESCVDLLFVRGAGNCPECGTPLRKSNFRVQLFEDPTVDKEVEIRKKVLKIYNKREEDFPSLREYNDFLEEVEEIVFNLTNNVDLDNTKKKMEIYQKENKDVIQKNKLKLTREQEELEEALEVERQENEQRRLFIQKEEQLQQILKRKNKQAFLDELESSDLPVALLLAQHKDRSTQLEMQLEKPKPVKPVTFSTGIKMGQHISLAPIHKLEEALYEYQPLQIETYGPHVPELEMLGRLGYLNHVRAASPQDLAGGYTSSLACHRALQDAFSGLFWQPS

IC50 [1] [nM]	IC50 [2] [nM]	Ki ([3]; 20 nM enzyme) [µM]	kinact [3] [s⁻¹]	kinact/KI [3, 4] [M⁻¹ s⁻¹]	kinact/KI [3, 5] [M⁻¹ s⁻¹]	CDK7_A549 Wild-type CDK7 (pIC50) [1]	CDK7_A549 mutant hCDK7(pIC50) [2]	CDK7 (20 nM enz.) (kinact, s^−1) ([3]; 20 nM enzyme) [s⁻¹]	CDK7 (20 nM enz.) (kinact/KI, M^−1*s^−1) ([3]; 20 nM enzyme) [M⁻¹ s⁻¹]	CDK7 (20 nM enz.) (kobs/[I], M^−1*s^−1) ([3]; 20 nM enzyme) [M⁻¹ s⁻¹]	SMILES
174	> 10000	0.0714	3.45e-05	483	–	–	–	–	–	–	CC#CC(=O)N1CCC(N2CC(c3cc(C)c4c(c3)Nc3nccc(C5CCOCC5)c3CO4)C2)C1 (stereo not shown) [Compound 274]
87.1	> 10000	–	–	–	921	–	–	–	–	–	C=CC(=O)N1CC(N2CCC(c3cc4c(c(-c5ncc[nH]5)c3)OCc3c(N5CCOCC5)ccnc3N4)CC2)C1 [Compound 275]
166	> 10000	0.226	3.13e-05	139	–	–	–	–	–	–	CC#CC(=O)N1CC(c2nc(C)c(-c3cc4c(c(C)n3)OCc3c(N5CCOCC5)ccnc3N4)c(C)n2)C1 [Compound 278]
19.5	1860	–	–	–	964	–	–	–	–	–	C=CC(=O)N1CC(n2cc(-c3cc(C#N)c4c(c3)Nc3nccc(N5CCOCC5)c3CO4)cn2)C1 [Compound 285]
295	> 10000	0.0265	3.61e-05	1360	–	–	–	–	–	–	C=CC(=O)N1CC(N2CC(c3cc4c(c(C#N)n3)OCc3c(N5CCOCC5)ccnc3N4)C2)C1 [Compound 290]
263	> 10000	0.0311	8.92e-05	2870	–	–	–	–	–	–	C=CC(=O)N1CC(N2CCC(c3cc4c(c(C#N)n3)OCc3c(-c5cnn(C)c5)ccnc3N4)CC2)C1 [Compound 298]
77.6	5370	0.0471	2.02e-05	427	–	–	–	–	–	–	CC#CC(=O)N1CCC(N2CC(c3cc4c(c(C)n3)OCc3c(N5CCOCC5)ccnc3N4)C2)CC1 [Compound 313]
–	–	0.0655	–	–	–	7.14	<5	3.945e-05	602.565	–	C=CC(=O)N1CC(N2CCC(c3cc4c(c(C)n3)OCc3c(-c5cnn(C)c5)ccnc3N4)CC2)C1 [Compound 314]
–	–	–	–	–	–	7.25	5.3	–	–	894.649	C=CC(=O)N1CC(N2CC(c3cc4c(c(C(F)(F)F)n3)OCc3c(N5CCOCC5)ccnc3N4)C2)C1 [Compound 315]
–	–	0.0898	–	–	–	6.97	5.32	2.255e-05	251.248	–	C=CC(=O)N1CCC(N2CC(c3cc4c(c(C)n3)OCc3c(-c5cnn(C)c5)ccnc3N4)C2)CC1 [Compound 316]
60.3	> 10000	–	–	–	1060	–	–	–	–	–	C=CC(=O)N1CC(N2CC(c3cc4c(c(C5CC5)n3)OCc3c(N5CCOCC5)ccnc3N4)C2)C1 [Compound 317]
324	> 10000	0.0441	6.19e-05	1400	–	–	–	–	–	–	CC#CC(=O)N1CC(N2CC(c3cc4c(c(C5CC5)n3)OCc3c(N5CCOCC5)ccnc3N4)C2)C1 [Compound 318]
79.4	9550	–	–	–	740	–	–	–	–	–	C=CC(=O)N1CC(N2CCC(c3cc4c(c(C#N)n3)OCc3c(C5CCOCC5)ccnc3N4)CC2)C1 [Compound 322]
< 9.77	4170	–	–	–	1280	–	–	–	–	–	CC#CC(=O)N1CCC(N2CCC(c3cc4c(c(C)n3)OCc3c(N5CCOCC5)ccnc3N4)CC2)CC1 [Compound 325]
178	6760	0.11	2.12e-05	193	–	–	–	–	–	–	CC#CC(=O)N1CC(n2cc(-c3cc(C)c4c(c3)Nc3nccc(N5CCOCC5)c3CO4)cn2)C1 [Compound 333]
55	3630	0.0383	1.86e-05	486	–	–	–	–	–	–	CC#CC(=O)N1CCC(N2CC(c3cc4c(c(C5CC5)n3)OCc3c(N5CCOCC5)ccnc3N4)C2)CC1 [Compound 335]

SMILES	IC50 [1] [nM]	IC50 [2] [nM]	Ki ([3]; 20 nM enzyme) [µM]	kinact [3] [s⁻¹]	kinact/KI [3, 4] [M⁻¹ s⁻¹]	kinact/KI [3, 5] [M⁻¹ s⁻¹]	CDK7_A549 Wild-type CDK7 (pIC50) [1]	CDK7_A549 mutant hCDK7(pIC50) [2]	CDK7 (20 nM enz.) (kinact, s^−1) ([3]; 20 nM enzyme) [s⁻¹]	CDK7 (20 nM enz.) (kinact/KI, M^−1*s^−1) ([3]; 20 nM enzyme) [M⁻¹ s⁻¹]	CDK7 (20 nM enz.) (kobs/[I], M^−1*s^−1) ([3]; 20 nM enzyme) [M⁻¹ s⁻¹]
C=CC(=O)N1CCC(N2CC(c3cc4c(c(C)n3)OCc3c(N5CCOCC5)ccnc3N4)C2)CC1 [Compound 303]	91.2	6170	0.0492	2.35e-05	477	–	–	–	–	–	–
